Consider 1 compound from article PMC8924238, “Mapping the sequence specificity of heterotypic amyloid interactions enables the identification of aggregation modifiers” (Nature Communications, 2022).

In assay [1] the target is T1, VQIVYK (PHF6) APR from tau (Homo sapiens, UniProt P10636).
T1 construct: The VQIVYK (PHF6) stretch, located in the C-terminal repeat domain of tau; made in house; host or cells: chemical solid phase peptide synthesis (no expression host)
In words: Th-T aggregation kinetics of VQIVYK with sub-stoichiometric variant peptides (1:5) or CAP1. The conditions noted are these: Fig. 8c. Type of assay: biochemical. From the text:
To experimentally investigate these calculations, we synthesised a library of 90 peptides corresponding to 78% of all single amino acid substitutions of the VQIVYK APR. We excluded introduction of cysteines to avoid further complexity introduced by the formation of intermolecular disulphides and also avoided substitutions of the Tyr residue at position five, since it enables fast and accurate readout of peptide concentration. First, peptide:APR mixtures were monitored using Th-T aggregation kinetic assays. For this screen, we used sub-stoichiometric mixtures of the variant peptides against PHF6 (1:5 analogy). The reasoning behind this was that it enabled tracing of subtle differences in aggregation kinetics, while at the same time reduced the propensity of most variants to participate in self-assembly. […] For the rest, following curve fitting of the monitored Th-T curves (Figs. 5a, b and S4), we calculated and summarised fold changes of aggregation half-times (t1/2) in a volcano plot, with the negative logarithm of the p-values represented on the vertical axis (Fig. 5c). […] It should be noted, however, that changes in fluorescence intensity can also potentially reflect morphological differentiation of the produced fibrils that can affect Th-T binding. […]

Assay [2] addresses T2, recombinant full-length tau (tau^2N4R) (Homo sapiens, UniProt P10636).
T2 construct: Recombinant full-length tau (tau^2N4R) was produced following previous established protocols; made in house
Description: Th-T kinetics of heparin-induced aggregation of recombinant full-length tau. Type of assay: biochemical. The conditions noted are these: Fig. 8d. The method, then: Recombinant full-length tau (tau^2N4R) was produced following previous established protocols. Lyophilised protein aliquots were freshly dissolved in 10 mM HEPES pH 7.4 supplemented with 100 mM NaCl at a final concentration of 10 μM. After filtration, using […] PVDF filters, the protein solution was spiked with 5 μ μM of heparin (Sigma) and aggregation was monitored by adding 25 μM of Th-T in half-area black 96-well microplates (Corning, USA). Fluorescence was measured in triplicates, using a FluoStar Omega plate reader (BMG Labtech, Germany) at 37 °C, equipped with an excitation filter at 440 nm and emission filter at 490 nm. To generate seeds, endpoint amyloid fibrils were sonicated for 15 min (30 s on, 30 s off) at 10 °C, using a Bioruptor Pico sonication device (Diagenode).

For assay [3], the target named is T3, ATTO633-monomeric tau (Homo sapiens, UniProt P10636).
T3 construct: heparin-induced aggregation of recombinant full-length tau (rTau); made in house
In words: Microscale thermophoresis, monomeric rTau. Type of assay: binding. The conditions noted are these: MST, 25 nM ATTO633-monomeric tau, CAP1 titrated from 50 μM; n = 3. The method, then: MST measurements were performed to calculate binding affinities. Monomeric tau was labelled using amine reactive ATTO633 (ATTO633-NHS), following the manufacturer guidelines. Labelled tau aggregates were prepared using a 1:9 analogy of labelled to unlabelled monomeric tau, following the same aggregation protocol described for the unlabelled protein. 25 nM of ATTO633-monomeric tau or ATTO633-tau seeds were mixed against the CAP1 inhibitor, which was dissolved and titrated down starting from 50 μM, in tau buffer (HEPES 10 mM, 100 mM NaCl). Measurements were recorded on a Monolith NT automated instrument (NanoTemper Technologies GmbH, Germany) with a red-laser channel at 5% LED excitation power and medium MST power at ambient conditions. Affinity constants and experimental data fitting was performed using the NanoTemper analysis software (v2.2.4) and results were depicted as differentials between the bound and unbound state after baseline subtraction (ΔFnorm) over inhibitor concentration in the logarithmic scale.

In assay [4] the test system is HEK293 Tau^RD-P301S-CFP/YFP expressing biosensor cells. In words: Seeding inhibition in FRET tau biosensor cells, AD brain extracts. Type of assay: cell-based, human. The conditions noted are these: CAP1 500 nM pre-treatment, extracts diluted 500x, three patients in duplicates, n = 6. An excerpt: Ethical approval to access and work on the human tissue samples was given by the UZ Leuven ethical committee (Leuven/Belgium; File-No. S63759). An informed consent for autopsy and scientific use of autopsy tissue with clinical information was granted from all subjects involved. Following approval, brain tissue from autopsy cases was received from UZ/KU Leuven Biobank. Sarkosyl-insoluble material was extracted from cortex tissue of three individual patients with Alzheimer’s disease (designated here as A1–A3, Supplementary Table 3), as shown previously. Briefly, the tissue was homogenised with a FastPrep (MP Biomedicals) in 10 volumes (w/v) cold buffer consisting of 10 mM Tris-HCl pH 7.4, 0.8 M NaCl, 1 mM EGTA and 10% sucrose, followed by centrifugation at 20,000 × g for 20 min at 4 °C. Universal Nuclease (Pierce) was added to the supernatant, followed by a 30 min incubation at room temperature. The sample was then brought to 1% Sarkosyl (Sigma) and incubated for 1 h at room temperature while shaking (400 rpm), followed by centrifugation at 350,000 × g for 1 h at 4 °C. The pellet was washed once, resuspended in 50 mM Tris-HCl pH 7.4 (175 mg of starting material per 100 µl) and stored at −80 °C. […]

“Also recorded” adds a separate entry of the source. Residues, ends and D or L forms follow the SMILES beside them.

T3 sequence (P10636 1-441 isoform P10636-8): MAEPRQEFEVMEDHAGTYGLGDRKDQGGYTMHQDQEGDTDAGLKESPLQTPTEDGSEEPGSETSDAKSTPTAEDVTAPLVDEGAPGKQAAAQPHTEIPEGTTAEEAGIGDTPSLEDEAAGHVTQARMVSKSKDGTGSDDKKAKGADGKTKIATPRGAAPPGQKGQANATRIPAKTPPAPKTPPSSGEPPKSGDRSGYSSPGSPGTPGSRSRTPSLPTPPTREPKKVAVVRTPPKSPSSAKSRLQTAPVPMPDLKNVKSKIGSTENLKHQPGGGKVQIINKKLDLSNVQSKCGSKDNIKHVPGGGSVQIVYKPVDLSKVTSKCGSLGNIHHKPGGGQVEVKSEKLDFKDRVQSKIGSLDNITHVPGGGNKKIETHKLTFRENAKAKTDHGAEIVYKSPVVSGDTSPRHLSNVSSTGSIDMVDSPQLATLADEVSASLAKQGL
T2 sequence (P10636 1-441 isoform P10636-8): as above

As for `CC[C@H](C)[C@H](NC(=O)[C@H](CCC(N)=O)NC(=O)[C@H](Cc1c[nH]c2ccccc12)NC(=O)[C@H](CCCNC(=N)N)NC(=O)[C@H](CO)NC(=O)CNC(=O)[C@H](CCCNC(=N)N)NC(=O)[C@H](CCCCN)NC(=O)[C@H](Cc1ccc(O)cc1)NC(=O)[C@@H](NC(=O)[C@@H](NC(=O)[C@H](CCC(N)=O)NC(=O)[C@H](Cc1c[nH]c2ccccc12)NC(=O)[C@@H](N)CCCNC(=N)N)[C@@H](C)CC)C(C)C)C(=O)N[C@H](C(=O)N[C@@H](Cc1ccc(O)cc1)C(=O)N[C@@H](CCCCN)C(=O)N[C@@H](CCCNC(=N)N)C(=O)O)C(C)C` [CAP1] (H-RWQIVYKRGSRWQIVYKR-OH; N-terminus and C-terminus assumed), in assay [1], the “inhibition of self-assembly of the PHF6 hexapeptide” value was “successfully inhibited; also recorded: inhibits”. Moreover, the “inhibition of heparin-induced aggregation of rTau” value in assay [2] is reported as “successfully inhibited; also recorded: inhibits”. Moreover, the “binding to monomeric rTau” value in assay [3] is reported as “no significant binding”. The “seed propagation of AD patient brain extracts (fraction of cells containing tau inclusions)” value in assay [4] is on record as “significantly reduces”.
